Reference: patent US10954269B2, “Anti-inflammatory tripeptides” (Dr. August Wolff Gmbh & Co. KG Arzneimittel, priority 2013, dated 2021)

Tests used:
Settings in all cases: substance 10^−9M
[1] = system: primary human T-cells; assay: Cytokine secretion on protein level in activated primary human T-cells (13-plex FACS / Luminex, supernatant); assay type: cell-based
Outline: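 First, T-cells are isolated from healthy donors' blood. Next, they and HaCaT keratinocytes are activated for 48 h with PMA/Ionomycin or IFN-γ in the presence of tripeptides. Finally, secreted cytokines are quantified in supernatants by 13-plex FACS at 48 and 72 h.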

[2] = system: primary murine T-cells; assay: Cytokine secretion on protein level in activated primary murine T-cells (13-plex FACS / Luminex, supernatant); assay type: cell-based, C57BL/6 mice
Outline: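 T-cells from secondary lymphatic organs of naïve C57BL/6 mice, stimulated with PMA/Ionomycin or IFN-γ; supernatant cytokines measured by 13-plex FACS 48 h and 72 h after stimulation. In another run, PMA/Ionomycin-stimulated cells received compounds at 10^−7, 10^−9 and 10^−11 M, with IFN-γ, IL-17 and IL-10 measured by Luminex.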

[3] = system: human keratinocyte cell line (HaCaT); assay: Cytokine secretion on protein level in activated human keratinocyte cell line HaCaT (13-plex FACS / Luminex, supernatant); assay type: cell-based
Outline: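 Primary T-cells from peripheral blood of healthy volunteers, or HaCaT cells, were activated with PMA/Ionomycin or IFN-γ for 48 h and treated with tripeptides. Supernatants were collected 48 h and 72 h after stimulation and cytokines (IL-1, IL-2, IL-6, IL-12p70, IL-17, IFN-γ, TNF-α) were measured by 13-plex FACS.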

[4] = primary human T-cells stimulated with IFN-γ
[5] = primary human T-cells stimulated with PBS
[6] = primary human T-cells stimulated with PMA/Ionomycin
[7] = primary murine T-cells stimulated with IFN-γ
[8] = primary murine T-cells stimulated with PBS
[9] = primary murine T-cells stimulated with PMA/Ionomycin
[10] = HaCaT stimulated with PMA/Ionomycin

N^α,N^α-dimethyl-(L)-Lys-(D)-Pro-N^α-methyl-(L)-Thr-NH2 [Example 4]
IL-1 cytokine concentration [1, 4]: 366.09 pg/mL | IL-2 cytokine concentration [1, 4]: 326.11 pg/mL | IL-4 cytokine concentration [1, 4]: 176.6 pg/mL | IL-5 cytokine concentration [1, 4]: 27.34 pg/mL | IL-6 cytokine concentration [1, 4]: 180.43 pg/mL | IL-9 cytokine concentration [1, 4]: 10.84 pg/mL | IL-10 cytokine concentration [1, 4]: 75.72 pg/mL | IL-12p70 cytokine concentration [1, 4]: 0 pg/mL | IL-13 cytokine concentration [1, 4]: 212.64 pg/mL | IL-17 cytokine concentration [1, 4]: 162.73 pg/mL | IL-22 cytokine concentration [1, 4]: 0 pg/mL | TNF-α cytokine concentration [1, 4]: 103.24 pg/mL | IL-1 cytokine concentration [1, 5]: 122.89 pg/mL | IL-2 cytokine concentration [1, 5]: 0 pg/mL | IL-4 cytokine concentration [1, 5]: 60.49 pg/mL | IL-5 cytokine concentration [1, 5]: 0 pg/mL | IL-6 cytokine concentration [1, 5]: 226.2 pg/mL | IL-9 cytokine concentration [1, 5]: 3.71 pg/mL | IL-10 cytokine concentration [1, 5]: 0 pg/mL | IL-12p70 cytokine concentration [1, 5]: 0 pg/mL | IL-13 cytokine concentration [1, 5]: 0 pg/mL | IL-17 cytokine concentration [1, 5]: 0 pg/mL | IL-22 cytokine concentration [1, 5]: 0 pg/mL | INF-α cytokine concentration [1, 5]: 0 pg/mL | TNF-α cytokine concentration [1, 5]: 0 pg/mL | IL-1 cytokine concentration [1, 6]: 689.99 pg/mL | IL-2 cytokine concentration [1, 6]: 1227.93 pg/mL | IL-4 cytokine concentration [1, 6]: 239.37 pg/mL | IL-5 cytokine concentration [1, 6]: 473.23 pg/mL | IL-6 cytokine concentration [1, 6]: 1280 pg/mL | IL-9 cytokine concentration [1, 6]: 239.43 pg/mL | IL-10 cytokine concentration [1, 6]: 417.95 pg/mL | IL-12p70 cytokine concentration [1, 6]: 0 pg/mL | IL-13 cytokine concentration [1, 6]: 1081.09 pg/mL | IL-17 cytokine concentration [1, 6]: 1356.78 pg/mL | IL-22 cytokine concentration [1, 6]: 0 pg/mL | INF-α cytokine concentration [1, 6]: 5384.11 pg/mL | TNF-α cytokine concentration [1, 6]: 4112.99 pg/mL | IL-1 cytokine concentration [2, 7]: 100.01 pg/mL | IL-2 cytokine concentration [2, 7]: 206.76 pg/mL | IL-4 cytokine concentration [2, 7]: 0 pg/mL | IL-5 cytokine concentration [2, 7]: 486.86 pg/mL | IL-6 cytokine concentration [2, 7]: 235.86 pg/mL | IL-10 cytokine concentration [2, 7]: 1250.21 pg/mL | IL-13 cytokine concentration [2, 7]: 0 pg/mL | IL-17 cytokine concentration [2, 7]: 92.71 pg/mL | IL-21 cytokine concentration [2, 7]: 814.33 pg/mL | IL-22 cytokine concentration [2, 7]: 114.68 pg/mL | IL-27 cytokine concentration [2, 7]: 138.81 pg/mL | TNF-α cytokine concentration [2, 7]: 47.36 pg/mL | IFN-γ cytokine concentration [2, 8]: 2456.98 pg/mL | IL-1 cytokine concentration [2, 8]: 78.5 pg/mL | IL-2 cytokine concentration [2, 8]: 147.3 pg/mL | IL-4 cytokine concentration [2, 8]: 119.19 pg/mL | IL-5 cytokine concentration [2, 8]: 377.16 pg/mL | IL-6 cytokine concentration [2, 8]: 189.26 pg/mL | IL-10 cytokine concentration [2, 8]: 1006.65 pg/mL | IL-13 cytokine concentration [2, 8]: 0 pg/mL | IL-17 cytokine concentration [2, 8]: 0 pg/mL | IL-21 cytokine concentration [2, 8]: 330.42 pg/mL | IL-22 cytokine concentration [2, 8]: 84.16 pg/mL | IL-27 cytokine concentration [2, 8]: 329.85 pg/mL | TNF-α cytokine concentration [2, 8]: 18.91 pg/mL | IFN-γ cytokine concentration [2, 9]: 3234.33 pg/mL | IL-1 cytokine concentration [2, 9]: 196.76 pg/mL | IL-2 cytokine concentration [2, 9]: 292.52 pg/mL | IL-4 cytokine concentration [2, 9]: 123.15 pg/mL | IL-5 cytokine concentration [2, 9]: 465.44 pg/mL | IL-6 cytokine concentration [2, 9]: 245.96 pg/mL | IL-10 cytokine concentration [2, 9]: 1383.24 pg/mL | IL-13 cytokine concentration [2, 9]: 0 pg/mL | IL-17 cytokine concentration [2, 9]: 391.98 pg/mL | IL-21 cytokine concentration [2, 9]: 987.02 pg/mL | IL-22 cytokine concentration [2, 9]: 48.93 pg/mL | IL-27 cytokine concentration [2, 9]: 80.01 pg/mL | TNF-α cytokine concentration [2, 9]: 62.85 pg/mL | IL-1 cytokine concentration ([3]; HaCaT stimulated with IFN-γ): 0 pg/mL | IL-2 cytokine concentration ([3]; HaCaT stimulated with IFN-γ): 0 pg/mL | IL-4 cytokine concentration ([3]; HaCaT stimulated with IFN-γ): 0 pg/mL | IL-5 cytokine concentration ([3]; HaCaT stimulated with IFN-γ): 0 pg/mL | IL-6 cytokine concentration ([3]; HaCaT stimulated with IFN-γ): 224.07 pg/mL | IL-9 cytokine concentration ([3]; HaCaT stimulated with IFN-γ): 0 pg/mL | IL-10 cytokine concentration ([3]; HaCaT stimulated with IFN-γ): 0 pg/mL | IL-12p70 cytokine concentration ([3]; HaCaT stimulated with IFN-γ): 0 pg/mL | IL-13 cytokine concentration ([3]; HaCaT stimulated with IFN-γ): 0 pg/mL | IL-17 cytokine concentration ([3]; HaCaT stimulated with IFN-γ): 13.16 pg/mL | IL-22 cytokine concentration ([3]; HaCaT stimulated with IFN-γ): 0 pg/mL | TNF-α cytokine concentration ([3]; HaCaT stimulated with IFN-γ): 0 pg/mL | IFN-γ cytokine concentration ([3]; HaCaT stimulated with PBS): 0 pg/mL | IL-1 cytokine concentration ([3]; HaCaT stimulated with PBS): 0 pg/mL | IL-2 cytokine concentration ([3]; HaCaT stimulated with PBS): 18.85 pg/mL | IL-4 cytokine concentration ([3]; HaCaT stimulated with PBS): 109.04 pg/mL | IL-5 cytokine concentration ([3]; HaCaT stimulated with PBS): 0 pg/mL | IL-6 cytokine concentration ([3]; HaCaT stimulated with PBS): 80.55 pg/mL | IL-9 cytokine concentration ([3]; HaCaT stimulated with PBS): 2.87 pg/mL | IL-10 cytokine concentration ([3]; HaCaT stimulated with PBS): 61.87 pg/mL | IL-12p70 cytokine concentration ([3]; HaCaT stimulated with PBS): 0 pg/mL | IL-13 cytokine concentration ([3]; HaCaT stimulated with PBS): 123.68 pg/mL | IL-17 cytokine concentration ([3]; HaCaT stimulated with PBS): 12.85 pg/mL | IL-22 cytokine concentration ([3]; HaCaT stimulated with PBS): 0 pg/mL | TNF-α cytokine concentration ([3]; HaCaT stimulated with PBS): 0 pg/mL | IFN-γ cytokine concentration [3, 10]: 39.23 pg/mL | IL-1 cytokine concentration [3, 10]: 0 pg/mL | IL-2 cytokine concentration [3, 10]: 0 pg/mL | IL-4 cytokine concentration [3, 10]: 0 pg/mL | IL-5 cytokine concentration [3, 10]: 16.77 pg/mL | IL-6 cytokine concentration [3, 10]: 225.53 pg/mL | IL-9 cytokine concentration [3, 10]: 0 pg/mL | IL-10 cytokine concentration [3, 10]: 97.56 pg/mL | IL-12p70 cytokine concentration [3, 10]: 0 pg/mL | IL-13 cytokine concentration [3, 10]: 0 pg/mL | IL-17 cytokine concentration [3, 10]: 28.83 pg/mL | IL-22 cytokine concentration [3, 10]: 0 pg/mL | TNF-α cytokine concentration [3, 10]: 3.93 pg/mL
